# In patent publication US20040106647A1, “Modulators of Cdk9 as a therapeutic target in cardiac hypertrophy” (priority 2002, published 2004):
# T1: Cdk7 (Rattus norvegicus, UniProt P51952)
# T1 construct: endogenous in cells; host or cells: neonatal rat ventricular myocytes; immunoprecipitated with polyclonal rabbit anti-Cdk7 and protein A-Sepharose
# T1 sequence (P51952 1-329): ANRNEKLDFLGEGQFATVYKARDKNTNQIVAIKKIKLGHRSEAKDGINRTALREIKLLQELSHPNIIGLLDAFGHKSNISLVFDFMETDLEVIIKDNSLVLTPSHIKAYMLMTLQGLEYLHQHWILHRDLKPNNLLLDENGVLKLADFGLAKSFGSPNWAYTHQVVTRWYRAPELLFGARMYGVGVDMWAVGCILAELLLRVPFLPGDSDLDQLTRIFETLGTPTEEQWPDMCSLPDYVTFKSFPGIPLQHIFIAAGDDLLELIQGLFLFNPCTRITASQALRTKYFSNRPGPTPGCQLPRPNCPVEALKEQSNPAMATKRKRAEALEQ
# T1 sequence (Q9R1A0 1-323 partner): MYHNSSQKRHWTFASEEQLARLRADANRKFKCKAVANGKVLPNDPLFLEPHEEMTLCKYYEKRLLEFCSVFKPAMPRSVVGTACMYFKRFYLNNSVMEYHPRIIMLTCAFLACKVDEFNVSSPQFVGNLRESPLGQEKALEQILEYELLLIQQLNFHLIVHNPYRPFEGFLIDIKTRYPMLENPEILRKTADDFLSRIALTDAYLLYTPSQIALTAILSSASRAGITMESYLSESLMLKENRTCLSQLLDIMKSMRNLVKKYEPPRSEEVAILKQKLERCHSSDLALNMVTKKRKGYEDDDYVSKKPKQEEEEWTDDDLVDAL
# How the values were obtained:
# [1] = system: pol II CTD; experiment: Western blotting of pol II CTD phosphorylation in cultured ventricular myocytes; assay type: cell-based, rat; details: for hyperphosphorylation of pol II: serum-starved 24 hr, stimulated 15 min, ET-1 0.1 μM, PE 0.1 μM, HB-EGF 1 nM
# Description: Western blotting was performed using the identical cell lysates. The following antibodies were used: rabbit antibodies against pol II, Cdk7, Cyclin H, MAT1, CyclinT1, Hsp70, Hsp90 and Cdc37; goat antibody against Cyclin T2a/b; and mouse monoclonal antibodies to the Ser2 and Ser5 CTD phoshopeptides (Patturajan et al., 1998; Herrmann et al., 2001). Protein expression was visualized using horseradish peroxidase-conjugated second antibodies and enhanced chemiluminescence reagents (Amersham Pharmacia Biotech).
# (§1) Neonatal ventricular myocytes from 1 to 2 day-old Sprague-Dawley rats were subjected to Percoll gradient centriftigation and differential plating, to enrich for cardiac myocytes and deplete nonmyocytes (Oh et al., 2001). Cells were infected for 6 hr, after overnight culture, at a multiplicity of infection (MOI) of 20, then were cultured in serum-free medium for an additional 24 hr before the addition of agonists. The efficiency of viral gene transfer is >95% under the conditions used. DRB (Sigmna) was dissolved in dimethylsulfoxide (DMSO) and then in culture medium to the desired final concentration in 0.1% (vol/vol) DMSO.
# Briefly, ventricular myocytes were analyzed by Western blotting as in Example 1. Ventricular myocytes were serum-starved for 24 hr, stimulated for 15 min with ET-1 (0.1 μM), PE (0.1 μM), HB-EGF (1 nM), or the vehicle, and analyzed by Western blotting with antibody to the pol II CTD. Ventricular myocytes were stimulated with ET-1 for the indicated times.
# (§2) Next, cells were preincubated with DRB for 2 hr at the concentrations shown, and were assayed for pol II phosphorylation after stimulation with ET-1 for 15 min or the indicated intervals. Immune complexes were treated in vitro with 50 μM DRB and assayed by phosphorylation of the recombinant GST-CTD substrate. […] Based on this effect, 50 μM DRB was added in vitro to cardiac Cdk9 and Cdk7 immune complexes, and assayed for its effect on phosphorylation of the recombinant CTD substrate.
# [2] = system: cardiac myocytes; experiment: Myocyte apoptosis by flow cytometry (hypodiploid DNA); assay type: cell-based
# Text: Myocyte apoptosis was monitored by flow cytometry as hypodiploid DNA, using FITC-conjugated MF20 antibody to sarcomeric myosin heavy chains and propidium iodide in the presence of RNase A (Oh et al., 2001).
# [3] = molecular target: T2, Cdk9 (Rattus norvegicus, UniProt Q641Z4); experiment: Immune complex CTD kinase assay (GST-CTD substrate), Cdk9; assay type: biochemical
# T2 construct: endogenous in cells; host or cells: neonatal rat ventricular myocytes; immunoprecipitated with polyclonal rabbit anti-Cdk9 and protein A-Sepharose
# T2 sequence (Q641Z4 whole entry): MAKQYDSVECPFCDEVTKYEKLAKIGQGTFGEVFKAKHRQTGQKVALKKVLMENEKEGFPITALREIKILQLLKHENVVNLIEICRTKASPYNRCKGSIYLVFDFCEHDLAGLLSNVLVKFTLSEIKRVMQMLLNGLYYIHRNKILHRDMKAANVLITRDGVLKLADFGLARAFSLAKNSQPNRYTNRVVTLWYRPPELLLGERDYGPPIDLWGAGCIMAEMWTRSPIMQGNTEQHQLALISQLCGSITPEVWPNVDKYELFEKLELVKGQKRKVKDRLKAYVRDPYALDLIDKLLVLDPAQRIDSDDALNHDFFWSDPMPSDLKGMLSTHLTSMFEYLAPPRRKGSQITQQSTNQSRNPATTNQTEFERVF
# Description: (§3) Immune complex kinase assays were performed as described (Yang et al., 1996), using polyclonal rabbit antibody against Cdk7 or Cdk9 together with protein A-Sepharose. Kinase assays were performed by adding 25 μl of 50 mM Tris-HCl [pH 7.4], 10 mM MgCl2, 5 mM dithiothreitol, 2.5 mM MnCl2, 5 μM ATP, 5 μCi of [γ-^32P]ATP, and 200 ng of GST-CTD to the beads and incubating at room temperature for 60 min. The complexes were resolved by SDS-polyacrylamide gel electrophoresis, and CTD phosphorylation was visualized by autoradiography and quantified using a phosphorimager and ImageQuant version 5.2 (Molecular Dynamics). Where indicated, immunoprecipiates were incubated with 50 μg/ml of bovine pancreas ribonuclease A (RNase A; Sigma) for 60 min prior to the CTD kinase assay.
# as §2
# [4] = molecular target: T1, Cdk7; experiment: Immune complex CTD kinase assay (GST-CTD substrate), Cdk7; assay type: biochemical; details: 50 μM DRB added in vitro to cardiac immune complexes
# Description: as §3, §2
# [5] = system: mitogen-activated protein kinases; experiment: Phosphorylation of mitogen-activated protein kinases in cultured cardiac myocytes; assay type: cell-based, rat; details: 50 μM DRB
# [6] = molecular target: Cdk9 (Homo sapiens, UniProt P50750); details: Zhu et al., 1997; cited from earlier work
# Chain of Cdk9 (Homo sapiens, UniProt P50750) (P50750 whole entry, species assumed): as the sequence (Q641Z4 whole entry) above, with T17S, K37R, Q40K, K258N, F262Y counted along it
# Chain of Cdk9 (Homo sapiens, UniProt P50750) (O60563 whole entry partner, species assumed): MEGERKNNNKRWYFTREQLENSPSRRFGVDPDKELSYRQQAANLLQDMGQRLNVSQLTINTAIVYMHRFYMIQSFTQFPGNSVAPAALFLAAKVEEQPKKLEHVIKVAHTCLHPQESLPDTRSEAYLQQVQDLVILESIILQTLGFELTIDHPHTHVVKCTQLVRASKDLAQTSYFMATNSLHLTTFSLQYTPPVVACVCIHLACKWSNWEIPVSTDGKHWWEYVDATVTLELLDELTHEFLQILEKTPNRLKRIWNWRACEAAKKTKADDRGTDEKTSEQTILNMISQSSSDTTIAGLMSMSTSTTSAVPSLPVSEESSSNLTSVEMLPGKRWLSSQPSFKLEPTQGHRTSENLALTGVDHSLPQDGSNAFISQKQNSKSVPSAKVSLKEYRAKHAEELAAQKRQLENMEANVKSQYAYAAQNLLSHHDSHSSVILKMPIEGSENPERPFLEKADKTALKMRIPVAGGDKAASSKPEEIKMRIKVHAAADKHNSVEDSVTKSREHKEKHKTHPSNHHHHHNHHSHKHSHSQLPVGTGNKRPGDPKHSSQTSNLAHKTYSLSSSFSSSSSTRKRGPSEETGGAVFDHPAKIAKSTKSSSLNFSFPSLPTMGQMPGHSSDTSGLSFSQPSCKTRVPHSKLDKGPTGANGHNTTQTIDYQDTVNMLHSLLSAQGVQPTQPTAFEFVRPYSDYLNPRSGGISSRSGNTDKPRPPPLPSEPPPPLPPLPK
# [7] = system: cardiac myocytes; experiment: [3H]uridine incorporation (RNA synthesis) in cardiac myocytes; assay type: cell-based, rat
# Description: as §1
# Cells were incubated for 24 hr with 1 μCi/ml of either precursor, in the absence or presence of ET-1 and [^3H]uridine and [^3H]phenylalanine incorporation was measured. Total RNA was extracted using TRIzol (Invitrogen), for simultaneous extraction of DNA from the samples.
# (§4) Hypertrophy was monitored as [^3H]uridine incorporation (FIG. 2F, FIG. 2H; n=4 per group) and [^3H]phenylalanine incorporation (FIG. 2I; n=6 per group), corrected for DNA content. Myocyte size was visualized with eGFP (FIG. 2G, FIG. 2J). Bar, 100 μm.
# [8] = system: cardiac myocytes; experiment: Myocyte size visualized with eGFP; assay type: cell-based, rat; details: DRB pretreatment, ET-1 stimulation
# Description: as §1, §4
# [9] = system: cyclin T/Cdk9 complex; experiment: Co-precipitation of 7SK snRNA with cyclin T/Cdk9 (RT-PCR of immune complexes); assay type: cell-based, rat; details: cardiac myocytes treated with ET-1
# Description: Total RNA was isolated from Cdk9, cyclin T1, cyclin T2, and Cdk7 immune complexes using TRIzol and subjected to DNase I (Invitrogen) for 15 min at room temperature, followed by reverse transcription using antisense oligonucleotides for 7SK snRNA. The PCR primers were: sense, (SEQ. ID. NO. 3) […]; antisense, (SEQ. ID. NO. 4) […]. PCR products were subjected to electrophoresis on 2% agarose gel and stained with ethidium bromide.
# ET-1 caused the rapid loss of Cdk9-associated 7SK snRNA, within 15 min. These findings were substantiated using each of three antibodies to the cyclin T/Cdk9 complex. Levels of 7SK RNA in the corresponding total cell lysates were unchanged. […] Thus, hypertrophic signals in cultured cardiac myocytes and the intact heart induce the dissociation of 7SK RNA from endogenous cyclin T/Cdk9. […] Conversely, endogenous cyclin T/Cdk9 was recovered from cardiac lysates using streptavidin-agarose plus a biotinylated 2′-O-methyl (2′-OMe) oligonucleotide complementary to 7SK snRNA (FIG. 3G): this method confirmed independently the dissociation of 7SK snRNA from cardiac cyclin T/Cdk9 for Gq and calcineurin.
# [10] = molecular target: cyclin dependent kinase 9 (Cdk9) (endogenous, mouse myocardium) (mouse) (UniProt Q99J95); experiment: cell-based or functional assay
# Chain of cyclin dependent kinase 9 (Cdk9) (endogenous, mouse myocardium) (mouse) (Q99J95 whole entry): as the sequence (Q641Z4 whole entry) above
# [11] = 50 μM, cardiac myocytes, [3H]uridine incorporation
# [12] = antisense knockdown of 7SK snRNA, 48 hr after transfection, cardiac myocytes
molecule,measurement,setting,value
"OC[C@H]1O[C@@H](n2cnc3cc(Cl)c(Cl)cc32)[C@H](O)[C@@H]1O [DRB, 5,6-dichloro-1-beta-D-ribofuranosylbenzimidazole]",ET-1-induced pol II phosphorylation,"[1]; 50 μM DRB, preincubated 2 hr, ET-1 15 min, cultured cardiac myocytes",inhibited
same,apoptosis,[2]; conditions sufficient to block ET-1 induction of pol II phosphorylation almost completely,no increase in apoptosis
same,cell death,[2]; higher concentrations that block RNA synthesis more completely,did induce cell death
same,Cdk9 activity (phosphorylation of recombinant CTD substrate),[3]; 50 μM DRB added in vitro to cardiac immune complexes,blocked Cdk9 activity almost completely
same,Cdk7 activity (phosphorylation of recombinant CTD substrate),[4],little or no effect
same,phosphorylation of mitogen-activated protein kinases downstream of ET-1,[5],without impairing
same,selectivity among CTD kinases,[6],selective activity against Cdk9
same,inhibition of ET-1 induced RNA synthesis,[7]; [11],~80%
same,inhibition of basal RNA synthesis,[7]; [11],~80%
same,ET-1-associated increase in myocyte size,[8],blocked
"CNC[C@H](O)c1cccc(O)c1 [PE, phenylephrine]",hyperphosphorylation of pol II,[1],induced
"antisense 7SK: antisense phosphorothioate oligonucleotide, SEQ. ID. NO. 1, 5′-CCTTGAGAGCTTGTTTGG AGG-3′, against 7SK snRNA (antisense CCTTGAGAGCTTGTTTGGAGG; all phosphorothioate, sugars by position and methylation of C not given here)",endogenous Cdk9 activity,[3]; [12],markedly increased
same,uridine incorporation,[7]; [12],as large an increase in uridine incorporation as did ET-1 itself
endothelin-1 [ET-1],time to loss of Cdk9-associated 7SK snRNA,[9],≤ 15 min
same,increase in proportion of pol IIo,"[1]; ET-1 time course, peak at 15 min, from 4% at baseline",9 fold
same,maximum proportion of pol IIo,"[1]; ET-1 time course, peak at 15 min, baseline 4%",36%
same,preferred CTD heptad residue phosphorylated,"[1]; phospho-epitope specific antibodies, Ser2 vs Ser5",preferentially induce phosphorylation at Ser2
same,hyperphosphorylation of pol II,[1],induced
same,Cdk9 CTD kinase activity,[3]; ventricular myocytes stimulated with ET-1 for 15 min,increased
same,augmentation of [3H]uridine incorporation,"[7]; control eGFP-infected myocytes, 24 hr",one-third
mouse cyclin T1 (cardiac-specific αMHC-cyclin T1 transgene) (from UniProt Q9QWV9 1-724),"Cdk9 activity (immune complex CTD kinase assay), high-expression transgenic line",[10],6 fold
same,"Cdk9 activity (immune complex CTD kinase assay), low-expression transgenic line",[10],2 fold
same,"baseline Cdk9 activity (immune complex kinase assay), cyclin T1 mice versus wild-type littermates",[10],4.4 fold
"RNase A: bovine pancreas ribonuclease A (Sigma) (protein, UniProt P61823 27-150, looked up) Ribonuclease pancreatic: KETAAAKFERQHMDSSTSAASSSNYCNQMMKSRNLTKDRCKPVNTFVHESLADVQAVCSQKNVACKNGQTNCYQSYSTMSITDCRETGSSKYPNCAYKTTQANKHIIVACEGNPYVPVHFDASV",Cdk9 kinase activity after treatment of immune complexes,"[3]; RNase A 50 μg/ml 60 min, control cells, GST-CTD substrate",levels even higher than did ET-1
"heparin-binding epidermal growth factor (protein, UniProt Q99075 63-148, looked up, member of the EGF family, secreted mediator of growth signals in the heart) Heparin-binding EGF-like …: DLQEADLDLLRVTLSSKPQALATPNKEEHGKRKKKGKGLGKKRDPCLRKYKDFCIHGECKYVKELRAPSCICHPGYHGERCHGLSL",hyperphosphorylation of pol II,[1],induced
